In data set [1] the test system is primary human nasal fibroblasts. As to the kind of experiment: Wound healing (migration) scratch assay, fibroblasts. It is filed as cell-based. To be noted: for wound healing of primary fibroblasts: after 44 hours. The method, then:
In the fibroblast wound closure assay, fibroblasts were seeded in 24 well plates, stained with CellTrace™ Violet (Invitrogen/Life Technologies, USA) and allowed to get 80% confluent in 24 hours. A straight vertical scratch was made down through the fibroblast and HNEC-ALI cell monolayers by using a 200 μl pipette tip. The media and cell debris was aspirated carefully and culture media with different concentrations of deferiprone (1 mM, 5 mM, 10 mM, 20 mM) or media only (negative control) added to each well for 72 hours. At time zero, cells were treated with 1 μg/ml mitomycin (Accord Healthcare Inc, NDC 16729-108-11, USA) to inhibit cell proliferation. The wound closure (cell migration) was recorded using time-lapse LSM700 confocal scanning laser microscopy (Zeiss Microscopy, Germany), with an image recorded every 4 hours in a temperature and CO2 controlled chamber. Data was analysed using Image.

Data set [2] has as its system type I collagen release in primary human nasal fibroblasts. Nature of the data set: Collagen assay (procollagen type I C-peptide ELISA). It is filed as cell-based. As to conditions: different concentrations (1, 5, 10, 20 mM). The method, then:
Primary human nasal fibroblasts were seeded in 24-well tissue-culture plates at a density of 5×10^5 grown in DMEM until confluent. […] Following treatment, the supernatant was collected and the protein level of type I collagen was measured with a procollagen type I C-peptide ELISA kit (Takara Bio Inc, Otsu, Japan). Experimental procedures followed the manufacturer's instruction. Briefly, 20 μl of culture medium and 100 μl of the antibody-POD conjugate solution were sequentially added into microtiter plates and reacted for 3 hours at 37° C. After 4× washing with washing buffer solution (1×PBST), 100 μl of the substrate solution was added and incubated for 15 minutes at RT. Finally, the stop solution (100 μl) was added and corresponding absorbance was recorded at 450 nm using a FLUOstar OPTIMA plate reader (BMG Labtech, Ortenberg, Germany).

Data set [3] relates to IL-6 production in nasal fibroblast cells. As to the kind of experiment: IL-6 ELISA, nasal fibroblasts with IL-1β. Format: cell-based, human. To be noted: in the presence or absence of IL-13 (so in the source), after 24 hours. The method, then:
(§1) Supernatants were collected from HNECs and fibroblasts after 24 hours of exposure with different concentrations of deferiprone in the presence/absence of the pro-inflammatory agent Poly (I:C) (10 μg/ml) or IL-1β (10 ng/ml Sigma, Saint Louis, USA) respectively. Interleukin-6 (IL-6) protein levels were estimated with an ELISA kit using rat anti-human IL-6 antibodies (BD Biosciences, New Jersey, USA), according to the manufacturer's instructions. All measurements were performed in duplicate using a FLUOstar OPTIMA plate reader (BMG Labtech, Ortenberg, Germany). The tissue sample concentration was calculated from a standard curve and corrected for protein concentration.

In data set [4] the test system is primary fibroblasts. Nature of the data set: Alamar Blue proliferation assay. Format: cell-based. The method, then: Alamar Blue Proliferation Assay Fibroblasts were seeded at a density of 2×10^4 cells/well in 96 well plates (Nuns, Sydney Australia) and cultured at 37° C., 5% CO2 for 24 hours Media was aspirated and cells were washed twice in phosphate buffered saline. The following treatments were used: • (i) No treatment control (NTC)—DMEM (Invitrogen, Sydney Australia) containing Penicillin at 500 U/mL, Streptomycin and Amphotericin B (Sigma-Aldrich, MO) at 0.5 mg/mL, 10% Fetal Bovine Serum. • (ii) 5 mM of Deferiprone dissolved in control media. • (iii) 10 mM Deferiprone dissolved in control media. • (iv) 20 mM Deferiprone dissolved in control media. Readings were taken at 4, 24, 48 and 72 hours. At each time point media was aspirated and fresh control media with 10% Alamar Blue was added and incubated in the dark for 6 hours at 37° C. 5% CO2. The plate was then read at 570 and 595 nm according to manufacturer's instructions. Fibroblasts proliferation was measured using the Alamar Blue reduction assay. The assay is based on use of resazurin, a non-toxic, cell permeable compound which is blue in colour and non-fluorescent. Resazurin is reduced to resorufin a compound that is red in colour and highly fluorescent. Viable cells continuously convert resazurin to resorufin, increasing the overall fluorescence and colour of the media surrounding cells.

Another data set concerns HNEC-ALI cultures. As to the kind of experiment: Wound healing (migration) scratch assay, HNEC-ALI. Format: cell-based, human. To be noted: 1, 5, 10, 20 mM for up to 68 hours; untreated healed by 68 hours. The method, then:
HNECs were grown until 80% confluent then harvested for seeding onto collagen coated 6.5 mm permeable Transwell plates (BD Biosciences, San Jose, Calif., USA) at a density of 5×10^4 cells per well. Cells were maintained with B-ALI™ growth medium for 2-3 days in a cell incubator at 37° C. with 5% CO2. On day 3 after seeding, the apical media was removed and the basal media replaced with B-ALI™ differentiation media, exposing the apical cell surface to the atmosphere. Human nasal epithelial cultures at air liquid interface (HNEC-ALI) were maintained for a minimum of 14 days for development of tight junctions and 28 days for cilia generation. In the fibroblast wound closure assay, fibroblasts were seeded in 24 well plates, stained with CellTrace™ Violet (Invitrogen/Life Technologies, USA) and allowed to get 80% confluent in 24 hours. A straight vertical scratch was made down through the fibroblast and HNEC-ALI cell monolayers by using a 200 μl pipette tip. […] The wound closure (cell migration) was recorded using time-lapse LSM700 confocal scanning laser microscopy (Zeiss Microscopy, Germany), with an image recorded every 4 hours in a temperature and CO2 controlled chamber. Data was analysed using Image.

Data set [5] concerns primary human nasal epithelial cells (HNECs). Nature of the data set: Cytotoxicity, LDH assay, HNECs. Format: cell-based. As to conditions: exposure 1 h, 2 h, 3 h, 4 h, 5 h and 6 h; deferiprone 1, 5, 10, 20 mM (p>0.05); Triton X-100 0.5%. The source says:
Primary human nasal epithelial […] harvested from nasal polyps by gentle brushing in a method described by Ramezanpour et al. (2016) “Th17 cytokines disrupt the airway mucosal barrier in chronic rhinosinusitis” Mediators of inflammation; 2016: 9798206. doi: 10.1155/2016/9798206. Extracted cells were suspended in Bronchial Epithelial Growth Media (BEGM, CC-3170, Lonza, Walkersville, Md., USA), supplemented with 2% Ultroser G (Pall Corporation, Port Washington, N.Y., USA). The cell suspension was depleted of macrophages using anti-CD68 (Dako, Glostrup, Denmark) coated culture dishes, and HNECs were maintained with B-ALITM growth medium (Lonza, Walkersville, USA) in collagen coated flasks (Thermo Scientific, Walthman, Mass., USA) in a cell incubator at 37° C. with 5% CO2. Primary human fibroblasts or epithelial cells were grown in DMEM and BEGEM (Lonza, Walkersville, USA) medium respectively. Cells were maintained in a fully humidified incubator with 5% CO2 at 37° C. prior to cytotoxicity studies. […] The optical density (OD) was measured at 490 Mil on a FLUOstar OPTIMA plate reader (BMG Labtech, Ortenberg, Germany), Cell culture studies were performed as three independent experiments.

Data set [6] has as its system primary fibroblasts. As to the kind of experiment: Fibroblast wound healing protocol (gap closure, migration). It is filed as cell-based. The method, then:
1. Fibroblast Wound Healing Protocol Fibroblasts were stained with CellTrace Proliferation Kit (Thermo-Fisher Scientific, Life Technologies, CA) and prepared in a suspension of 3×10^5 cells/mL of DMEM (Invitrogen, Sydney Australia) containing Penicillin at 500 U/mL, Streptomycin and Amphotericin B (Sigma-Aldrich, MO) at 0.5 mg/mL, 10% Fetal Bovine Serum. 70 uL of this suspension were seeded into each chamber inserts of the Ibidi culture-insert 24 (Ibidi GmbH, Munich, Germany) and cultured for 12 hours at 37° C., 5% CO2. The inserts were then removed with sterile forceps and cells washed twice in phosphate buffered saline. The following treatments were used: • (i) No treatment control (NTC) DMEM (Invitrogen, Sydney Australia) containing Penicillin at 500 U/mL, Streptomycin and Amphotericin B (Sigma-Aldrich, MO) at 0.5 mg/mL 10% Fetal Bovine Serum. • (ii) 5 mM of Deferiprone dissolved in control media. • (iii) 10 mM Deferiprone dissolved in control media. • (iv) 20 mM Deferiprone dissolved in control media. The effects on cells were recorded in real time at 37° C., 5% CO2 and imaged at intervals of 0, 8, 24 and 48 hours using Zeiss LSM700 Confocal (Carl Zeiss, Oberkochen, Germany) until gap closure. Image properties: DAPI blue signal; 405 nm laser; line step 2; line average 4; bit 12; zoom 0.5; 512×512 pixels; time series.

The subject of data set [7] is IL-6 production in human nasal epithelial cells. Nature of the data set: IL-6 ELISA, HNECs with Poly (I:C). Format: cell-based. To be noted: 24 hours, in the presence of Poly (I:C) LMW. The method, then: as §1
Data set [8] relates to primary human nasal fibroblasts. Nature of the data set: Cytotoxicity, LDH assay, nasal fibroblasts. It is filed as cell-based. As to conditions: exposure 1 h, 2 h, 3 h, 4 h, 5 h and 6 h; deferiprone 1, 5, 10, 20 mM (p>0.05); Triton X-100 0.5%. The method, then: Sinonasal tissue was biopsied from paranasal sinus mucosa and transferred to a 6-well culture plate with 2 ml Dulbecco's Modified Eagle's medium (DMEM, Invitrogen, UK) supplemented with 1:100 L-glutamine, 10% Fetal bovine serum (FBS, Sigma-Aldrich), 1:100 ascorbic acid 2-phosphate, and 1:100 penicillin streptomycin (Gibco, Life Technologies) and incubated. Every 2-3 days, the tissue was washed gently with 1 ml phosphate-buffered saline (PBS) and medium was replaced with 1.5 ml fresh medium until fibroblasts became confluent after approximately 2 weeks. Once confluent, fibroblasts were washed with 2 ml PBS, trypsinized and collected followed by centrifugation at 400×g for 8 minutes. The supernatant was removed and pellet resuspended in 1 ml PBS along with 50 μl Dynabeads Epithelial Enrich (Invitrogen, USA). The tube was wrapped in parafilm and placed on a rotor mixer for 20 minutes at room temperature (RT). Supernatant containing fibroblasts were transferred to a T25 tissue culture flask and the tube containing the remaining beads discarded Primary human fibroblasts or epithelial cells were grown in DMEM and BEGEM (Lonza, Walkersville, USA) medium respectively. […] The optical density (OD) was measured at 490 Mil on a FLUOstar OPTIMA plate reader (BMG Labtech, Ortenberg, Germany), Cell culture studies were performed as three independent experiments.

For the molecule `Cc1c(O)c(=O)ccn1C` [deferiprone, 3-hydroxy-1,2-dimethylpyridin-4(1H)-one], the “wound healing of primary fibroblasts” value in [1] (5 mM) and in data set [1] (10 mM) was “significantly delayed healing” each time. Also, in data set [1] (20 mM, at 28 h and all time points thereafter, untreated closed after 44 hours), the “wound closure of primary fibroblasts” value is given as “significant delay in wound closure”. The “collagen protein concentrations in supernatants of fibroblast monolayers” value in data set [2] (24 hours as printed, absence of ASC, p<0.0001) was “significantly reduced collagen protein concentrations”. The “collagen secretion in the presence of L-Ascorbic acid-2 phosphate (ASC)” value in [2] (with ASC) was “significantly inhibited collagen secretion in a dose dependent manner”. In addition, the “secretion of IL-6 in nasal fibroblasts” value in data set [3] is “did not alter the secretion of IL-6”. For the same molecule, the “inhibition of fibroblast proliferation (Alamar Blue)” value in the data set on primary fibroblasts [4] (5, 10, 20 mM deferiprone, readings at 4, 24, 48, 72 hours, 2-way ANOVA) is reported as “significant dose dependent effect”. For the same molecule, in the data set with primary fibroblasts [4] (occurred over a period of at least 24 to 72 hours), the “time course of inhibition of proliferation” value is recorded as “time dependent”. The “wound healing in HNEC-ALI cultures” value with HNEC-ALI cultures is “did not show any significant delay in wound healing”. For the same molecule, the “LDH release (cytotoxicity) in HNECs” value in data set [5] is reported as “no significant increase in LDH release”. Also, in the data set with primary fibroblasts [6] (20 mM deferiprone, up to 48 hours, control cells close the void after 48 hours), the “closure of void in fibroblasts” value is given as “minimal closure”. Besides, in the data set with primary fibroblasts [6] (within 48 hours, 5, 10, 20 mM), the fibroblast migration result was “inhibited fibroblast migration”. Moreover, the “reduction of IL-6 protein concentrations in HNECs” value is 80% in data set [7] (10 mM, p=0.001) and 96% in data set [7] (20 mM, p=0.0001). In [8], the “LDH release (cytotoxicity) in fibroblasts” value is “no significant increase in LDH release”.

For the origin of these results see US11590075B2, “Methods and products for reducing adhesions” (priority 2017, dated 2023).
